In patent publication US20240287052A1, “NOVEL OXAZOLE DERIVATIVE AND PHARMACEUTICAL COMPOSITION FOR PREVENTING OR TREATING ALLERGIC DISEASES COMPRISING THE SAME” (AZCURIS CO., LTD., priority 2021, published 2024):
pEC50, pIC50: −log10 of the molar value. Read-outs that look alike come from different tables or passages of the source.

Tests used:
[1] = tested on: IL-6 secretion in the human mast cell line HMC 1.1; test: IL-6 production inhibition assay (IL-33 stimulated HMC 1.1 cells, IL-6 ELISA); assay type: cell-based; settings: for inhibition at 1 µM: 1 μM compound, read-out: Inhibition of hIL-6 production (%) 1 μM; for inhibition at 10 µM: 10 μM compound, read-out: Inhibition of hIL-6 production (%) 10 μM; for pEC50: read-out: Inhibition of hIL-6 production EC50
Summary of the method: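 HMC 1.1 cells stimulated with 200 nM recombinant human IL-33 were exposed 24 hours to compound at 10 μM, 25 μM, 30 μM or 50 μM, among other levels. Secreted IL-6 was quantified by ELISA in triplicate against a standard curve and expressed as % of vehicle.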

[2] = biological target: T1, IL33 and ST2 binding (Homo sapiens, UniProt O95760); test: biochemical;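 also: plate ELISA with coated Flag-tagged human IL-33 and His-tagged human ST2, bound ST2 detected by anti-His HRP and TMB absorbance at 450 nm, 2 h compound incubation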
T1 sequence (O95760 112-270 limits assumed): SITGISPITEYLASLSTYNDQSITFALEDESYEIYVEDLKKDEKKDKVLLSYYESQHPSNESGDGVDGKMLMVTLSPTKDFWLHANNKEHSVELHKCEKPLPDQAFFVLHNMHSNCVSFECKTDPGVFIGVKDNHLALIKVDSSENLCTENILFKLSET

[3] = biological target: T1, IL33 and ST2 binding
[4] = tested on: Human liver cancer cell line HepG2 cells; test: Cellular viability, WST-8 assay, without or with human liver microsomes; assay type: cell-based; settings: for Cellular viability (%) (+) microsome: HepG2, with human liver microsomes; for Cellular viability (%) (−) microsome: HepG2, without human liver microsomes
Experimental: (§1) Human liver cancer cell line HepG2 cells were cultured in a medium (high glucose Dulbecco's Modified Eagle Medium, DMEM, HyClone) supplemented with 10% fetal bovine serum (FBS, HyClone) and 1% antibiotic in a thermostat maintained at 37° C. with 5% CO2.
(§2) HepG2 cells, which are adherent cells, were […] or presence of human liver microsomes (Gibco) and NADPH regenerating system.
(§3) Cell cultures were exchanged using […] of medium (high glucose Dulbecco's Modified Eagle Medium, DMEM, HyClone) and incubated for 24 hours.
(§4) After adding 10 μL of WST-8 (abCam), the absorbance was obtained at 460 nm after 5 seconds of orbital shaking with a microplate reader (Tecan, Spark©) 2 hours later.
(§5) The mean of the three values obtained in triplicate was calculated and expressed as % cellular viability compared to vehicle treatment.

[5] = as above; assay type: cell-based
Experimental: as §1, §2, §3, §4, §5

[6] = HepG2, with human liver microsomes, read-out: CC50 (μM) (+) microsome
[7] = HepG2 cells, HepG2, without human liver microsomes, read-out: CC50 (μM) (−) microsome

SMILES	inhibition at 1 µM ([1]; 24 hours)	inhibition at 10 µM ([1]; 24 hours)	pIC50 [2]	inhibition ([3]; 30 µM)	inhibition ([3]; 100 µM)	Cellular viability (%) (+) microsome ([4]; at 100 μM)	Cellular viability (%) (−) microsome ([4]; at 100 μM)	CC50 at 24 h [5, 6]	CC50 at 24 h [5, 7]	pEC50 [1]	inhibition at 0.1 µM ([1]; 0.1 μM compound, 24 hours, read-out: Inhibition of hIL-6 production (%) 0.1 μM)	Cellular viability (%) (+) microsome ([4]; at 135 μM)	Cellular viability (%) (−) microsome ([4]; at 135 μM)
CN(C)CCNC(=O)c1nc(-c2ccc(C#N)cc2)oc1-c1ccccc1 [Compound 249, 2-(4-Cyanophenyl)-N-(2-(dimethylamino)ethyl)-5-phenyloxazole-4-carboxamide]	8%	35%	5.19	81%	97%	50 at %	43 at %	29.1 µM	19 µM	–	–	–	–
CN(C)CCNC(=O)c1nc(-c2ccc(Cl)cc2)oc1-c1ccccc1[N+](=O)[O-] [Compound 246, 2-(4-Chlorophenyl)-N-(2-(dimethylamino)ethyl)-5-(2-nitrophenyl)oxazole-4-carboxamide]	20%	45%	5.32	110%	112%	52 at %	47 at %	16 µM	11.8 µM	5.21	–	–	–
CC(=O)N1CCN(CCNC(=O)c2nc(-c3ccc(C(F)(F)F)cc3)oc2-c2ccccc2[N+](=O)[O-])CC1 [Compound 284, N-(2-(4-acetylpiperazin-1-yl)ethyl)-5-(2-nitrophenyl)-2-(4-(trifluoromethyl)phenyl)oxazole-4-carboxamide]	27%	39%	5.50	101%	104%	49 at %	40 at %	46.5 µM	48.6 µM	–	–	–	–
CSc1ccc(-c2nc(C(=O)NCCN3CCN(C)CC3)c(-c3ccccc3)o2)cc1 [Compound 272, N-(2-(4-Methylpiperazin-1-yl)ethyl)-2-(4-(methylthio)phenyl)-5-phenyloxazole-4-carboxamide]	52%	79%	5.38	97%	97%	49 at %	46 at %	5.6 µM	4.73 µM	6.38	–	–	–
CCOC(=O)c1nc(-c2ccc(C(F)(F)F)cc2)oc1-c1cccc([N+](=O)[O-])c1 [Compound 33, Ethyl 5-(3-nitrophenyl)-2-(4-(trifluoromethyl)phenyl)oxazole-4-carboxylate]	30%	32%	5.77	107%	108%	68 at %	73 at %	43.5 µM	67 µM	–	–	–	–
CN(C)CCNC(=O)c1nc(-c2ccc([N+](=O)[O-])cc2)oc1-c1ccccc1[N+](=O)[O-] [Compound 277, N-(2-(Dimethylamino)ethyl)-5-(2-nitrophenyl)-2-(4-nitrophenyl)oxazole-4-carboxamide]	27%	31%	4.84	60%	111%	49 at %	46 at %	46.2 µM	25.4 µM	–	–	–	–
CCCNC(=O)c1nc(-c2ccc(C(F)(F)F)cc2)oc1-c1cccc(SC)c1 [Compound 292, 5-(3-(Methylthio)phenyl)-N-propyl-2-(4-(trifluoromethyl)phenyl)oxazole-4-carboxamide]	39%	42%	5.95	110%	112%	–	–	–	–	7.05	29%	58 at %	55 at %
